Results taken from ChEMBL document CHEMBL1201862, “PubChem BioAssay data set” (2004).
Active and inactive are the calls of the source.

Experiments:
Cytochrome P450 2D6 = Cytochrome P450 2D6 (Homo sapiens, UniProt P10635); test: qHTS Assay for Inhibitors and Substrates of Cytochrome P450 2D6. [Related pubchem assays: 410 ]; format: ADME; conditions: read-out: Potency
[1] = target: T1, Probable nicotinate-nucleotide adenylyltransferase (Staphylococcus aureus (strain N315), UniProt P65502); format: functional, Staphylococcus aureus subsp. aureus N315;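 as to IC50 Mean: confirmatory dose-response retesting of NadD inhibitor hits first found in an ultra-high-throughput screen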
T1 sequence (P65502 whole entry): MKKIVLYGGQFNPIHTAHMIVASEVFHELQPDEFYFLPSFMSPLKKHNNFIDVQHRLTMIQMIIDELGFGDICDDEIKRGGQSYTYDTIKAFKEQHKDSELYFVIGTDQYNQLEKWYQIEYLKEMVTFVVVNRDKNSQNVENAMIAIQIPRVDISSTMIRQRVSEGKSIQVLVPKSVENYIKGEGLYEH

[2] = target: T1, Probable nicotinate-nucleotide adenylyltransferase; format: functional, Staphylococcus aureus subsp. aureus N315; conditions: read-out: IC50_Mean
[3] = target: Neuropeptide Y receptor type 1 (Homo sapiens, UniProt P25929); test: Fluorescence-based counterscreen for agonists of NPY-Y2: cell-based high-throughput dose response assay for agonists of NPY-Y1.; format: functional
Sequence of Neuropeptide Y receptor type 1 (P25929 whole entry): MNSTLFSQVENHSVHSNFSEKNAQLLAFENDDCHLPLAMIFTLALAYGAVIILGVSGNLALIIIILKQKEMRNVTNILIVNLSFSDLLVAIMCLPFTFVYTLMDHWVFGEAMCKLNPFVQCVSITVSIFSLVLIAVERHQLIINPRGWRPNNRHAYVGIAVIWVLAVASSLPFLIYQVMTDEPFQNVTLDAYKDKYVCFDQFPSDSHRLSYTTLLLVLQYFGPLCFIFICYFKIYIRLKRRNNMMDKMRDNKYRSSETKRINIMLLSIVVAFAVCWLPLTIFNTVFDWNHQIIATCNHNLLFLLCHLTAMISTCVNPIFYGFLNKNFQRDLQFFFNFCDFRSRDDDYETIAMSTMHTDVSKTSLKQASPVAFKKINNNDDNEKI

Vero = test: viability of Vero cells under compound – cytotoxicity control for flavivirus capping enzyme inhibitors (AID 588742); format: functional; conditions: Chlorocebus sabaeus
Aminopeptidase N = target: T2, Aminopeptidase N (Plasmodium falciparum FcB1/Columbia, UniProt O96935); test: malaria alanyl aminopeptidase activity blockers – biochemical, fluorogenic H-Leu-NHMec substrate, 1536-well (AID 1445); set-up: species or system Plasmodium falciparum 3D7, 3D7
T2 sequence (O96935 whole entry): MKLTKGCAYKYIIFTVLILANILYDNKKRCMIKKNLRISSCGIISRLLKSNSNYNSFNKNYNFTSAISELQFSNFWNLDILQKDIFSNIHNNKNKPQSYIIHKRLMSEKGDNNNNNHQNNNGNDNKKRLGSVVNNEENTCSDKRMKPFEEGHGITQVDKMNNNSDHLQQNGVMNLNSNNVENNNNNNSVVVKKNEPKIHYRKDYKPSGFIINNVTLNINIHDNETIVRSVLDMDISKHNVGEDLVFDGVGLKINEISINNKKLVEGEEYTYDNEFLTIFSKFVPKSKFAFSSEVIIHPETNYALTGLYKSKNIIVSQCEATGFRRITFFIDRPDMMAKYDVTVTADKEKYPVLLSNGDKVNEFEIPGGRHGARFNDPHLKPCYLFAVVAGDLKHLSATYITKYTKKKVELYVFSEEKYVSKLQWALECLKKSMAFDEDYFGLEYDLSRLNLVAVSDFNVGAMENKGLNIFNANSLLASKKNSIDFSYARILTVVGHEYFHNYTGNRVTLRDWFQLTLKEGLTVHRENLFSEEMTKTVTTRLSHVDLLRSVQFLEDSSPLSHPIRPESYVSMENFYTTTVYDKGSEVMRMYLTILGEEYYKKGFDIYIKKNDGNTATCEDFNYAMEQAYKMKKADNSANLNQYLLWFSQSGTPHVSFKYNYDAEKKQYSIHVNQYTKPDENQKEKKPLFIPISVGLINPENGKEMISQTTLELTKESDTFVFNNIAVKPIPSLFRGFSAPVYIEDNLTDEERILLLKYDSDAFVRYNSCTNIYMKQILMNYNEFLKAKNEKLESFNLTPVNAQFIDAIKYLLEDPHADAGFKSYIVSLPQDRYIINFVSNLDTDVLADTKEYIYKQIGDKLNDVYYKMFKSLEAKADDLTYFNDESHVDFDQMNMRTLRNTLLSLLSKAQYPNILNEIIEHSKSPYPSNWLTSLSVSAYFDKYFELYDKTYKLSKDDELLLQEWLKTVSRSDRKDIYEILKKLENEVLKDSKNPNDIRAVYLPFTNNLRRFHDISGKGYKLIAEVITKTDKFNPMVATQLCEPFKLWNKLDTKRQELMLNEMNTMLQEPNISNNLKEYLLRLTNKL

[4] = CCR5-tropic HIV-1 fusion blockers – cell-based, CCR5-tropic Env, dose response (AID 2279); format: functional
[5] = target: Neuropeptide Y receptor type 2 (Homo sapiens, UniProt P49146); test: Fluorescence-based cell-based high-throughput dose response assay for agonists of NPY-Y2. [Related pubchem assays: 1703 (Screening assay (CNGC inhibitors).), 1359 (Screening assay (NPY-Y2 potentiators or agonists).), 1304 (Screening assay (NPY-Y1 potentiators or agonists).), 1710 (Screening assay (NPY-Y2 agonists).), 1791 (Summary AID.)]; format: functional
Sequence of Neuropeptide Y receptor type 2 (P49146 whole entry): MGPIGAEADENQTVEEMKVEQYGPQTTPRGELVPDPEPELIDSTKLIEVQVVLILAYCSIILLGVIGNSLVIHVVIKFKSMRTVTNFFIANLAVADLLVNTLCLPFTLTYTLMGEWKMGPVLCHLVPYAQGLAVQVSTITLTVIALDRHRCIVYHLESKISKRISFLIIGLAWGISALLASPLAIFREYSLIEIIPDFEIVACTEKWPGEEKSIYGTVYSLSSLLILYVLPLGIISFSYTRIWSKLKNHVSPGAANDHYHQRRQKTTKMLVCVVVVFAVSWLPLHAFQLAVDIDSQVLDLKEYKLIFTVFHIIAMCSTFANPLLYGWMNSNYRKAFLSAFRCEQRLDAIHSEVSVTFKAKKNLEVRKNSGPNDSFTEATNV

HEK293 = test: Fluorescence-based counterscreen for potentiators or agonists of NPY-Y2: cell-based high-throughput dose response assay to identify inhibitors of cyclic nucleotide gated ion channel (CNGC) activity. In this assay, the parental HEK293 cell line transfected with a cyclic-nucleotide gated ion channel (CNGC)-based cAMP sensor is used to measure inhibition of isoproterenol-induced CNGC activity by test compound.; format: functional; conditions: Homo sapiens
Nonstructural protein 1 = Nonstructural protein 1 (Influenza A virus, UniProt Q194T2); format: functional, Influenza A virus (A/California/07/2009(H1N1))
Sequence of Nonstructural protein 1 (Q194T2 whole entry): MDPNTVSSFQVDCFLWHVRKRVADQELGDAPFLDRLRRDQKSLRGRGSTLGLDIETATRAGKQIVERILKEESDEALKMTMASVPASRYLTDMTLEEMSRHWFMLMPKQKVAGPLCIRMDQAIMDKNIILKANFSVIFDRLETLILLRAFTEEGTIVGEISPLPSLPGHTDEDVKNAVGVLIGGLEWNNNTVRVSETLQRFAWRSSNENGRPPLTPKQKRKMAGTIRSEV

[6] = reduction of Shn3 3'UTR-driven luciferase in osteoblasts – cell-based, Clone20 osteoblasts, firefly luciferase, cherry-picked, dose response (AID 624132); format: functional;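 also: firefly luciferase luminescence from reporter carrying the Shn3 3'UTR in osteoblasts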
[7] = non-specific 3'UTR reporter inhibition in Clone20-Shn3RL – cell-based, Renilla luciferase, cherry-picked, counter-screen for Shn3 inhibitor project, dose response (AID 624133); format: functional
[8] = alpha-synuclein stem-loop luciferase translation blockers – H4 neuroglioma cells, luminescence, confirmation (AID 1988); format: functional, cell-based
[9] = Trypanosoma cruzi growth suppression in host cells – NIH3T3 host cells, beta-gal luminescence, confirmation (AID 2044); format: functional, cell-based;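 also: intracellular parasites grown in NIH/3T3 mouse fibroblasts as host cells; luminescent beta-galactosidase reporter signal from transgenic T. cruzi replicating inside host cells; inhibitors lower the luminescence signal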
[10] = NIH3T3 cell viability loss – ATP luminescence, mouse fibroblasts, counter-screen, dose response (AID 2010); format: functional, cell-based;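 also: cells exposed to compound for about 90 hours before reading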
[11] = target: T3, Mannose-6-phosphate isomerase (Homo sapiens, UniProt P34949); test: MPI enzyme activity inhibition – biochemical, fluorescence intensity, coupled assay, primary screen (AID 1209)
T3 sequence (P34949 whole entry): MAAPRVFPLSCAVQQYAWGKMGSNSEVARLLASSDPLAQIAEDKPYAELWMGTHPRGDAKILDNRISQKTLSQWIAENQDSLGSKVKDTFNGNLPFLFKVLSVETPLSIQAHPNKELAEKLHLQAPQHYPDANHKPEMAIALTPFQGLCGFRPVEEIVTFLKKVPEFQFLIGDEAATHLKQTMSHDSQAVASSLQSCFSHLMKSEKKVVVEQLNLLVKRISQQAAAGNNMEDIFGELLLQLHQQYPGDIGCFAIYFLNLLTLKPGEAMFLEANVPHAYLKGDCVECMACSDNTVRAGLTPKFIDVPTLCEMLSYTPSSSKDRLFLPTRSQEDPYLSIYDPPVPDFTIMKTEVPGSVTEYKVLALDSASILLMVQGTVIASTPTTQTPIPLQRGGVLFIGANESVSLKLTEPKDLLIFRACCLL

[12] = fluconazole-exposed Candida albicans growth modulators – fluorescence, retest, confirmation (AID 2467); format: functional, cell-based
[13] = loss of viability in HepG2 cells – cell-based, CellTiter-Glo, cherry-picked, cytotoxicity control for Shn3 inhibitor project, dose response (AID 624134); format: functional
INS1 = test: INS-1E survival protection against cytokine death – cell-based, luminescence, retest, dose response (AID 449756); format: functional; conditions: Rattus norvegicus;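 also: cell death triggered by IL-1 beta plus TNF-alpha plus IFN-gamma mixture; protective hits raise ATP signal compared with cytokine alone wells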
[14] = Luminescence Cell-Based Dose Response HTS to Identify Inhibitors of 5'UTR Stem-Loop Driven Prion Protein mRNA Translation in H4 Neuroglioblastoma Cells. [Related pubchem assays: 1827 (Project Summary), 1813 (Primary HTS)]; format: functional
cells [15] = format: functional, cell-based
[16] = target: T4, Heat shock factor protein 1 (Mus musculus, UniProt P38532); test: decrease of HSF1-responsive luciferase luminescence – cell-based, NIH3T3, dose retest, confirmation (AID 2382); format: functional;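 also: NIH3T3 fibroblasts with HSF1-driven luciferase reporter stressed by proteasome inhibitor MG132; luminescence from HSF1-driven luciferase expression after 8 hours of MG132 stress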
T4 sequence (P38532 whole entry): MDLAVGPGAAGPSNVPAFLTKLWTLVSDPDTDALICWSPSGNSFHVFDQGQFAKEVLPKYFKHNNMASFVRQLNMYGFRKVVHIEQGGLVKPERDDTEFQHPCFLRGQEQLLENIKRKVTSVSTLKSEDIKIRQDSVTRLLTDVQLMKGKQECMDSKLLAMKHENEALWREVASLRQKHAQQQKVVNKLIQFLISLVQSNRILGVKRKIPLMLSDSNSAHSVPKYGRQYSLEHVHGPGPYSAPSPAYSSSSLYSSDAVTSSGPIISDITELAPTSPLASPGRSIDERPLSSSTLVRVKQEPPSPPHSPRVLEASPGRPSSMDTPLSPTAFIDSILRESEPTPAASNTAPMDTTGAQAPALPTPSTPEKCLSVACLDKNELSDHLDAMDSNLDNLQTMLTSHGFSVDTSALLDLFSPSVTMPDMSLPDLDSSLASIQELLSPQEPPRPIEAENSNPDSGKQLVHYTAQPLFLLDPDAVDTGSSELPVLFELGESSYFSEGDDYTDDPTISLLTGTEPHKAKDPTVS

[17] = luciferase reporter signal suppression in cells – H4 neuroglioma cells, luminescence, dose response (AID 1990); format: functional, cell-based
[18] = NIH-3T3 fibroblast cytotoxicity, dose response, cytotoxicity control, cell-based, fluorescence, Alamar Blue, secondary assay (AID 2327); format: functional;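 also: NIH-3T3 mouse fibroblasts cultured with fluconazole at 8 µg/mL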
cells [19] = format: functional, cell-based; remark: listed apart in the source
Estrogen receptor [20] = target: T5, Estrogen receptor (Homo sapiens, UniProt P03372); test: ERα coactivator recruitment enhancers – biochemical, TR-FRET, ERα LBD, dose response (AID 737)
T5 sequence (P03372 whole entry): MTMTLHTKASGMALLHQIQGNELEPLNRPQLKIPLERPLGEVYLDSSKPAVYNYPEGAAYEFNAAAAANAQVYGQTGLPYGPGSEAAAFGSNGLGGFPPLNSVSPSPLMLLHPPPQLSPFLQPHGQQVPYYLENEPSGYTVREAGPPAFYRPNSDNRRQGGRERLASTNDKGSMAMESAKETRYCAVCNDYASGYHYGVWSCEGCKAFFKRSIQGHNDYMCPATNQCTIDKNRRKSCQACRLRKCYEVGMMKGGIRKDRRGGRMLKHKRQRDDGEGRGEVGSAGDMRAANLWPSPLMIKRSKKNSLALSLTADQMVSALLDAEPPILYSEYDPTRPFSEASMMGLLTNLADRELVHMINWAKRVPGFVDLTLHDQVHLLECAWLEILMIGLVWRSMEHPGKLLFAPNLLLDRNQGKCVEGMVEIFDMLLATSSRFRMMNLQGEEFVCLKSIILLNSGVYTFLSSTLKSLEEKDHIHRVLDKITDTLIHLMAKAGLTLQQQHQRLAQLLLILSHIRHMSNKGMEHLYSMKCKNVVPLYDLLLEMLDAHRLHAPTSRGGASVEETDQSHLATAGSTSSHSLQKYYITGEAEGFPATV

[21] = viability loss of HPDE-C7K cells – cell-based, fluorescence, HTS, primary screen (AID 431); format: functional; conditions: Homo sapiens
[22] = HPDE-C7 pancreatic duct cell viability loss – fluorescence, HTS (AID 430); format: functional, cell-based; conditions: Homo sapiens
[23] = mitochondrial function rescue without frataxin homolog – Friedreich's ataxia, plus single-dose screen, dose response (AID 1465); format: functional;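 also: yeast depleted of Yfh1p frataxin homolog grown on glycerol needing respiration; WST-1 tetrazolium dye reduction as measure of cellular dehydrogenase metabolic activity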
[24] = target: Serine/threonine-protein phosphatase PP1-alpha catalytic subunit (Homo sapiens, UniProt P62136); test: inhibition of protein phosphatase 1 activity – biochemical, fluorescence, dose response (AID 2403);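 also: phosphatase turnover of OMFP into fluorescent 3-O-methylfluorescein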
Sequence of Serine/threonine-protein phosphatase PP1-alpha catalytic subunit (P62136 whole entry): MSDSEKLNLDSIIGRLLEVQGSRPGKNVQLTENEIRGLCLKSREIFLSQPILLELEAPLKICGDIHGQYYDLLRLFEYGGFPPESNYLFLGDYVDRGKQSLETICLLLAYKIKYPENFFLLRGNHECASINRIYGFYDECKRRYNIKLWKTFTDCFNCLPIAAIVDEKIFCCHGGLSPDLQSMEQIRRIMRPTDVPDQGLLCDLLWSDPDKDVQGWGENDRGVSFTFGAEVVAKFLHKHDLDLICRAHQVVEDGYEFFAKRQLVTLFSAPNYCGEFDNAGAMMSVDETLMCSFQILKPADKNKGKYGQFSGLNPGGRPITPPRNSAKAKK

[25] = target: Serine/threonine-protein phosphatase (Homo sapiens, UniProt Q9BPW0); test: Counterscreen for inhibitors of PP1: fluorescence-based biochemical high throughput dose response assay to identify inhibitors of Protein Phosphatase 5 (PP5). [Related pubchem assays: 2034 (Summary (PP5 inhibitors)), 1987 (PP5 inhibitors in singlate), 2235 (PP1 inhibitors in singlate)]
Sequence of Serine/threonine-protein phosphatase (Q9BPW0 whole entry): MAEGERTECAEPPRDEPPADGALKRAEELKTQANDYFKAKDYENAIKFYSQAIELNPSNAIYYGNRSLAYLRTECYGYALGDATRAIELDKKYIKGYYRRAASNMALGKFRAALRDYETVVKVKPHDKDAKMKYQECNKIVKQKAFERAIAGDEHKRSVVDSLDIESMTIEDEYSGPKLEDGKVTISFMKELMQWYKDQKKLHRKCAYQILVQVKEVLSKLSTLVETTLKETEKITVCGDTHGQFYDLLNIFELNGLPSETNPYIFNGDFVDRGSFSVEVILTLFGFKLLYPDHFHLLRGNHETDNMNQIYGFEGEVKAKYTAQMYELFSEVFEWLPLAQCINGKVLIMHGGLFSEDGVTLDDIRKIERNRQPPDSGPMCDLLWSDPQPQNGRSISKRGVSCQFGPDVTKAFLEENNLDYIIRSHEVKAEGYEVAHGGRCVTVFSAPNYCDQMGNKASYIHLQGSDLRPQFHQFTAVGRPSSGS

[26] = target: Mothers against decapentaplegic homolog 3 (Homo sapiens, UniProt P84022); test: blockers of Smad3 complex formation in lysate – cell lysate, secondary confirmation, chemiluminescent ELISA, HEK293 lysate, dose response (AID 1058); format: functional
Sequence of Mothers against decapentaplegic homolog 3 (P84022 whole entry): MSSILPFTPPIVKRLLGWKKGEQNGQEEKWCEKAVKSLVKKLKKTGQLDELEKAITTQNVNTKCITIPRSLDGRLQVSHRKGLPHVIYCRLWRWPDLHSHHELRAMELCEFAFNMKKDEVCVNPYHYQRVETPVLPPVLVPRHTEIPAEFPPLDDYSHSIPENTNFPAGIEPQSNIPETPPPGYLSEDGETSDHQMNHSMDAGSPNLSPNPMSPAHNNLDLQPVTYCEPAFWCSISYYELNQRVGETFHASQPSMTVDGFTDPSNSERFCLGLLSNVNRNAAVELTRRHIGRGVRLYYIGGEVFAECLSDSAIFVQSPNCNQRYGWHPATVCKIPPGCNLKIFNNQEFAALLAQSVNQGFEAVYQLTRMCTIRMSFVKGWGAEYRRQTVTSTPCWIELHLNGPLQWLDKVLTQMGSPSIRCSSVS

Estrogen receptor [27] = target: T5, Estrogen receptor; test: blockers of SRC-3 recruitment to ERα – biochemical, ELISA, streptavidin-HRP readout, orthogonal assay, confirmation (AID 1079)

Sequence of Cytochrome P450 2D6 (P10635 whole entry): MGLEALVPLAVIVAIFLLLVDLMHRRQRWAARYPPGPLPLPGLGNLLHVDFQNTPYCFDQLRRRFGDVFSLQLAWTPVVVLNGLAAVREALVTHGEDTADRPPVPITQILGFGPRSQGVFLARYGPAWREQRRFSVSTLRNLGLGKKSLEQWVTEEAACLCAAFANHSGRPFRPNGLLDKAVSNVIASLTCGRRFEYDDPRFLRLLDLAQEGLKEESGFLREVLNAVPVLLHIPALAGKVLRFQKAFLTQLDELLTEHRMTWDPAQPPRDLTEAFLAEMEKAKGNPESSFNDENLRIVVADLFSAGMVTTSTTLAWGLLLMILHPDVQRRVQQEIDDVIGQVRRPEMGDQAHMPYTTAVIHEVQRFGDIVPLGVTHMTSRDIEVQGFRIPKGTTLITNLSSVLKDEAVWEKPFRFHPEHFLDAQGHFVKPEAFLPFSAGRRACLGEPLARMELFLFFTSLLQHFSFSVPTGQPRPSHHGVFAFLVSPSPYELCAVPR

## COC(=O)NC(c1ccc(F)cc1)C(C(C)=O)C(=O)OC (stereo not drawn)
Cytochrome P450 2D6
  AC50: 3.16 µM (inconclusive)

## COc1ccccc1NS(=O)(=O)c1cccc(N2C(=O)/C(=C\Nc3ccccc3C(=O)O)c3ccccc3C2=O)c1
[1]
  IC50: 2.81 µM (active)
[2]
  IC50: 22.2 µM (active)
[3]
  EC50: > 11.8 µM (not active)
Vero
  CC50: > 40 µM (active)
Aminopeptidase N
  IC50: 30.4 µM (active)
[4]
  IC50: 19.6 µM (active)
[5]
  EC50: 20.1 µM (not active)
HEK293
  EC50: 13.4 µM (not active)

## Oc1c(CN2CCOCC2)cc(COCc2ccccc2)c2cccnc12
Nonstructural protein 1
  IC50: 4.95 µM (active)
[6]
  AC50: 1.28 µM (active)
[7]
  AC50: 3.15 µM (active)
[8]
  EC50: 4.24 µM (active)
[9]
  EC50: 1.26 µM (active)
[10]
  EC50: 28 µM (active)
[11]
  IC50: 25.7 µM (active)
[12]
  EC50: 1.28 µM (active)
[13]
  AC50: 2.13 µM (active)
INS1
  AC50: 2.39 µM (active)
[14]
  EC50: 5.43 µM (active)
Cells [15]
  EC50: 6.33 µM (active)
[16]
  EC50: 36.3 µM (active)
[17]
  EC50: 4.97 µM (active)
[18]
  EC50: > 160 µM (inactive)
Cells [19]
  EC50: > 350 µM (not active)

## CCC(=O)Oc1ccc(C(CC)C(CC)c2ccc(OC(=O)CC)cc2)cc1 (stereo not drawn)
Estrogen receptor [20]
  EC50: 10.2 µM (active)
[21]
  EC50: 10.7 µM (active)
[22]
  EC50: 9.19 µM (active)

## S=C(NCc1ccc2c(c1)OCO2)Nc1ccc(-c2nc3ccccc3[nH]2)cc1
[23]
  EC50: > 100 µM (active)

## CCOC(=O)c1cnc(-n2cc(C)cn2)nc1NCc1ccc2c(c1)OCO2
[24]
  IC50: 5.96 µM (active)
[25]
  IC50: > 67 µM (not active)

## CC1NC(C(=O)O)Cc2cc(O)c(O)cc21 (stereo not drawn)
[26]
  IC50: > 50 µM (not active)

## O=C(CCCn1c(=S)[nH]c2ccccc2c1=O)N1CCC(c2ccccc2)CC1
Estrogen receptor [27]
  IC50: 0.05 µM (not active)
